IC50 data for one molecule are collected here from patent US9862708B2, “Pyrazolone compounds and uses thereof” (Tempest Therapeutics, Inc., priority 2014, dated 2018).

For orientation: IC50 means the concentration needed to halve the response being measured.

Like-named read-outs stand apart in the source and are kept apart here.

Holding throughout (format): cell-based
Experiment [1] has as its target T1, human PPARα (Homo sapiens, UniProt Q07869).
T1 construct: host or cells: proprietary non-human mammalian cells
T1 sequence (Q07869 1-468): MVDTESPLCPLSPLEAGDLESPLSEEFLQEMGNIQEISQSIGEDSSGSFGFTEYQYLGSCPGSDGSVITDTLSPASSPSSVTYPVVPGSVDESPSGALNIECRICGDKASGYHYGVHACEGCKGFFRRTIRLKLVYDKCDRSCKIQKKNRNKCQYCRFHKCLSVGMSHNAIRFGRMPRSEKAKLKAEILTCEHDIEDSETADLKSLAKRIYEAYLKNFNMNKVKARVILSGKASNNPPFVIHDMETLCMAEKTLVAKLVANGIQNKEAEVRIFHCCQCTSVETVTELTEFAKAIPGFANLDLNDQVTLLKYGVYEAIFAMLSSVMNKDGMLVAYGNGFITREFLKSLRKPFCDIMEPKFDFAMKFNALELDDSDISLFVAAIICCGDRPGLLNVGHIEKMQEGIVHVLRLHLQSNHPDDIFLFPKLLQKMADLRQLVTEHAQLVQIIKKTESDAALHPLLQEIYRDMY
Briefly: Human PPARα Reporter Assay (luciferase, Indigo Biosciences). Put shortly: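 Agonist or antagonist activity read as luciferase light from engineered reporter cells carrying human PPARα and a responsive reporter gene. Cells got compound immediately on dispensing, incubated overnight, then treatment media swapped for luciferase detection reagent.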
(In general: Reporter assays use an easily measured gene product as a stand-in for the process of interest.)

For experiment [2], the target named is T2, PPAR beta/delta (Homo sapiens, UniProt Q03181).
T2 construct: host or cells: engineered reporter cells of the kit (analogous to the PPARα kit: non-human mammalian)
T2 sequence (Q03181 1-441): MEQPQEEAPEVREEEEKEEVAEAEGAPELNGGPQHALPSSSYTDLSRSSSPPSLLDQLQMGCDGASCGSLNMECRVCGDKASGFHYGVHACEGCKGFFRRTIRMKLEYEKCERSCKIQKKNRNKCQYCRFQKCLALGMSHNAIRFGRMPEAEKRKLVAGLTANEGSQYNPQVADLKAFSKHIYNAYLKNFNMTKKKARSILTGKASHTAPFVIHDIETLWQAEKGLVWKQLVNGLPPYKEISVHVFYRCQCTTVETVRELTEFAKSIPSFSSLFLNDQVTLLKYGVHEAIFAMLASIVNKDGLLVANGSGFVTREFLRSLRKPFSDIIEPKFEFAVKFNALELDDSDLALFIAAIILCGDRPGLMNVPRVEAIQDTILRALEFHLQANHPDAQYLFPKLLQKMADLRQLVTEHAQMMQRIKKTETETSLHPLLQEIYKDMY
Nature of the experiment: PPAR β/δ reporter counterscreen (Indigo Biosciences kit). As to conditions: receptor agonist at ~EC80 for antagonist potency. As to the method:
(§1) To determine species selectivity, a Mouse PPARα Reporter Assay System was used (Indigo Biosciences, Cat. #M00111). Activity of test compounds to antagonize or agonize other isoforms of human PPAR, for example β/δ and γ, were assessed using the corresponding kits from Indigo Biosciences (Cat. #IB00121 and #IB00101, respectively). In addition to PPAR activity, compounds were also screened for activity against other nuclear hormone receptors including Estrogen Receptor β, Glucocorticoid Receptor and Thyroid Receptor β using commercially available kits (Indigo Biosciences, Cat. #IB00411, IB00201 and IB01101, respectively). Each assay system from Indigo Biosciences uses technology analogous to the human
(§2) PPARα kit, with the variance being that the cells used for each assay were engineered to over-express the receptor of interest. In addition, the appropriate receptor agonist (included with each kit) was used at ˜EC80 for assays in which antagonist potency was being assessed.

For experiment [3], the target named is T3, PPAR gamma (Homo sapiens, UniProt P37231).
T3 construct: host or cells: engineered reporter cells of the kit (analogous to the PPARα kit: non-human mammalian)
T3 sequence (P37231 1-505): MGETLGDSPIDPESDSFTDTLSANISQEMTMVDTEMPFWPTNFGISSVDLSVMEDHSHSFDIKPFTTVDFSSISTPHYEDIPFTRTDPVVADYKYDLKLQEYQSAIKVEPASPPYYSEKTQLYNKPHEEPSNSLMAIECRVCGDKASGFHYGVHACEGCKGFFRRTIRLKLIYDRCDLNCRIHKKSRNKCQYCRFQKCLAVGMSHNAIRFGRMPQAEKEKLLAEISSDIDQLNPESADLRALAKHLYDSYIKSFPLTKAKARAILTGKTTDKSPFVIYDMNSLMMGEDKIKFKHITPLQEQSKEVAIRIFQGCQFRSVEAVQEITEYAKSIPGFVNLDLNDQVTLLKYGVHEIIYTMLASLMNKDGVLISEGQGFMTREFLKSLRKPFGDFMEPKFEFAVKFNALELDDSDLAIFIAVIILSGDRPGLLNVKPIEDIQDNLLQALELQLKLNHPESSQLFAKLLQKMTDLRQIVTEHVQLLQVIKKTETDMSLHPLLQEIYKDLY
Nature of the experiment: PPAR γ reporter counterscreen (Indigo Biosciences kit). As to conditions: receptor agonist at ~EC80 for antagonist potency. On the procedure: as §1, §2
(In general: The purpose of a counterscreen is to sort out artefacts and off-target activity.)

Experiment [4] concerns the target T4, Thyroid Receptor β (Homo sapiens, UniProt P10828).
T4 construct: host or cells: engineered reporter cells of the kit
T4 sequence (P10828 1-461): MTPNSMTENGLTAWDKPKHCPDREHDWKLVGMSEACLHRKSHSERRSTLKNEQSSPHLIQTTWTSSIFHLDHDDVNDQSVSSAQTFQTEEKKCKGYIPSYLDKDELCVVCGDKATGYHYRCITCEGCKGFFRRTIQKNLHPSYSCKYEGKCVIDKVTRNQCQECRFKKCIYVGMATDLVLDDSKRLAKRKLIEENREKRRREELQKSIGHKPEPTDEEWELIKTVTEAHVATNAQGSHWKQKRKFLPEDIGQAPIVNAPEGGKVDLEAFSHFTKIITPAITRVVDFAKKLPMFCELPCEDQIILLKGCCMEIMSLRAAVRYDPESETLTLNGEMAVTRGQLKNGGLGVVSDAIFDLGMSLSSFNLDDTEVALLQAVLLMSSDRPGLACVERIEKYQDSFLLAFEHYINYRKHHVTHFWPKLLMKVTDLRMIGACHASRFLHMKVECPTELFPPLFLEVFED
Nature of the experiment: Thyroid Receptor β reporter counterscreen (Indigo Biosciences kit). As to conditions: receptor agonist at ~EC80 for antagonist potency. As to the method:
as §1, §2

In experiment [5] the target is T5, Glucocorticoid Receptor (Homo sapiens, UniProt P04150).
T5 construct: host or cells: engineered reporter cells of the kit
T5 sequence (P04150 1-777): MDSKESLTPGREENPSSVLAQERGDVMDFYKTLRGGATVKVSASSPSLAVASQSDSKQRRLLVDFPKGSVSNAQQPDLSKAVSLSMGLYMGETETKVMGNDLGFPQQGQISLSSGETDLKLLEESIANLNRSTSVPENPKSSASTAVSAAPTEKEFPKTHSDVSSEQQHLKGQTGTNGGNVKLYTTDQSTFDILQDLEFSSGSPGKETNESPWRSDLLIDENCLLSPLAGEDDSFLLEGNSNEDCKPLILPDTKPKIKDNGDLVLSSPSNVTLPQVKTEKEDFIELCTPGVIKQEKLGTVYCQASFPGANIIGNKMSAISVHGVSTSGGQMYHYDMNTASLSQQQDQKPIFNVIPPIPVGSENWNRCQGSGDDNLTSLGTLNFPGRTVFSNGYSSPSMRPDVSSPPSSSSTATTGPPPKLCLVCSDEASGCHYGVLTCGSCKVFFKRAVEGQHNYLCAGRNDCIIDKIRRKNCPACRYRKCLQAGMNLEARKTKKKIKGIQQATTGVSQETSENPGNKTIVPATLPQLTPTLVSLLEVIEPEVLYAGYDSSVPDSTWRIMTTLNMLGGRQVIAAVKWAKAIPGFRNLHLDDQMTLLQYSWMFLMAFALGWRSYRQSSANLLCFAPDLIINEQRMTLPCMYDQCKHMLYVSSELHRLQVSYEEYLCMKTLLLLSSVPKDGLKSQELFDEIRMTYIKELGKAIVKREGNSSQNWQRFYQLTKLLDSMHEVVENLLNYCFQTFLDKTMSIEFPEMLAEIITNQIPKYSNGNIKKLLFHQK
Nature of the experiment: Glucocorticoid Receptor reporter counterscreen (Indigo Biosciences kit). Conditions: receptor agonist at ~EC80 for antagonist potency. As to the method: as §1, §2

The target of experiment [6] is T6, Estrogen Receptor β (Homo sapiens, UniProt Q92731).
T6 construct: host or cells: engineered reporter cells of the kit
Nature of the experiment: Estrogen Receptor β reporter counterscreen (Indigo Biosciences kit). As to conditions: receptor agonist at ~EC80 for antagonist potency. On the procedure: as §1, §2

T6 sequence (Q92731 whole entry): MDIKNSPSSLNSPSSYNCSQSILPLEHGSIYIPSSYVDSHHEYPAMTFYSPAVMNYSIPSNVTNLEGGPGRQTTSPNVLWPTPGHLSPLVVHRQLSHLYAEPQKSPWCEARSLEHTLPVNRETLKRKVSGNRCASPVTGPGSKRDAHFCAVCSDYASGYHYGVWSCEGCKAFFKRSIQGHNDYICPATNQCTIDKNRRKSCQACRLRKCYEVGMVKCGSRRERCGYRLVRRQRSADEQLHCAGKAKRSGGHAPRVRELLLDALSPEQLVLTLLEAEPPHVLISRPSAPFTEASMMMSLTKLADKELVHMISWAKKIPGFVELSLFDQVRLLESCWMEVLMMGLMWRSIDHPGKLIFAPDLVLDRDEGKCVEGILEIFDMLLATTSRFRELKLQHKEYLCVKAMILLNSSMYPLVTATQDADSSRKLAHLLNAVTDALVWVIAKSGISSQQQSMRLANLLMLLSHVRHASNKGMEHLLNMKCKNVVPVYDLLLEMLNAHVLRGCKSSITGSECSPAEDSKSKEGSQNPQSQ

In the case of `CC1(C)C(=O)N(c2ccc(C(F)(F)F)cc2)N=C1CCCc1ccc(OC2(C(=O)O)CCC2)cc1` [Example 50, 1-(4-(3-(4,4-dimethyl-5-oxo-1-(4-(trifluoromethyl)phenyl)-4,5-dihydro-1H-pyrazol-3-yl)propyl)phenoxy)cyclobutanecarboxylic acid], the IC50 in experiment [1] (Target Selectivity - Counterscreen table, read-out: PPAR alpha IC50) amounted to 0.0024 µM; in experiment [1] (antagonism, luciferase reporter cells, overnight incubation, read-out: PPARα IC50), 0.0024 µM; in experiment [2] it was 22 µM; in experiment [3] it was 56 µM; in experiment [4], 61 µM; in experiment [5], 36 µM. In experiment [6], this molecule registered an IC50 of 36 µM.
